Literature values in patent publication US20240197617A1, “ANTI-AGING COSMETIC COMPOSITION BASED ON RESVERATROL AND MAGNOLIA” (Tomcat International Limited, priority 2021, published 2024).

Tested on: TET enzymes
Conditions: study carried out on a mouse

C=CCc1ccc(O)c(-c2ccc(O)c(CC=C)c2)c1 [honokiol]
Effect on activity of TET enzymes: stimulated the activity of TET enzymes
